The record followed here is ChEMBL document CHEMBL5537198, “Discovery and Characterization of a Bicyclic Peptide (Bicycle) Binder to Thymic Stromal Lymphopoietin” (J Med Chem, 2024).

Structures are written as SMILES.

By Vd is commonly meant the apparent volume that relates the amount in the body to the concentration in plasma or blood. A lower Vd goes with little distribution into tissue. For orientation: bioavailability means dose-corrected exposure relative to a reference, in per cent. Usually MRT stands for a mean duration of stay, worked out from the concentration-time curve. One may read the share remaining as the share of the starting amount still present when the sample was taken. Lower therefore signals a greater loss. One may read the clearance as a measure of how efficiently the substance is removed, as volume per time. Lower therefore signals inefficient removal. A word on the half-life: it is the time in which the quantity being followed falls by half. Higher therefore signals slow decline.

Series [1] can be described thus: in vivo. Conditions: Wistar Han, rat, iv.
Series [2] can be described thus: in vivo. The note with it: Wistar Han, rat, at 0.6 to 2 µmol/kg.
A short description of series [3]: in vivo. Conditions: Wistar Han, rat, lung.
Series [4] can be described thus: in vitro. The note with it: rat, plasma.
Series [5] is described as follows: in vivo. Conditions: Wistar Han, rat, iv. This is another data set of the same source.
Series [6] is described as follows: in vivo. Conditions: Wistar Han, rat, iv. The source holds these as a separate data set.
Series [7] in a line: in vitro. Conditions: Wistar Han, rat, lung S9 fraction.
Series [8] is described as follows: in vivo. The note with it: Wistar Han, rat, urine, iv; at 0.6 to 2 µmol/kg.
Series [9] is described as follows: in vitro. Conditions: rat, plasma. This is another data set of the same source.
Series [10] in a line: in vitro. The note with it: human, lung S9 fraction.

In the series “in vivo [1]”, `CC(=O)N[C@H]1CSCCC(=O)N2CN3CN(C2)C(=O)CCSC[C@H](NC(=O)[C@H](CC(=O)O)NC(=O)[C@H](CCC(=O)O)NC(=O)[C@H](CC(C)C)NC(=O)[C@H](Cc2c[nH]c4ccccc24)NC(=O)[C@H](CCC(N)=O)NC1=O)C(=O)N[C@@H](Cc1c[nH]c2ccccc12)C(=O)N[C@@H](CCCNC(=N)N)C(=O)NCC(=O)N[C@@H](Cc1ccc(F)cc1)C(=O)N[C@H](C(=O)N[C@@H](C)C(N)=O)CSCCC3=O` showed a Vd of 0.3 L/kg. For the same molecule, the bioavailability in “in vivo [2]” is 3.4%. For the same molecule, in the series “in vivo [3]”, the MRT worked out at 1.2 h. The same molecule registered a share remaining at 18 h in the series “in vitro [4]” above 50%. The clearance in the series “in vivo [5]” came to 42 mL/min/kg. This molecule came in with a half-life in the series “in vivo [6]” of 0.0833 h. Also, in the series “in vitro [7]”, the half-life at 1 h, 10 µM stood at 2.4 h.
`CC(=O)N[C@H]1CSCCC(=O)N2CN3CN(C2)C(=O)CCSC[C@H](NC(=O)[C@H](CC(=O)O)NC(=O)[C@H](CCC(=O)O)NC(=O)[C@H](CC(C)(C)C)NC(=O)C(Cc2cn(C)c4ccccc24)NC(=O)[C@H](CCC(N)=O)NC1=O)C(=O)N[C@@H](Cc1cn(C)c2ccccc12)C(=O)N[C@@H](CCCNC(=N)N(C)C)C(=O)NCC(=O)N[C@@H](Cc1ccc(F)cc1)C(=O)N[C@H](C(N)=O)CSCCC3=O` (some centres undefined) returned a Vd in the series “in vivo [1]” of 0.42 L/kg. This molecule returned a bioavailability in “in vivo [2]” of 24.7%. The same molecule displayed an MRT in the series “in vivo [3]” of 1.3 h. In “in vitro [4]”, this molecule showed a share remaining at 18 h above 50%. For the same molecule, the clearance in the series “in vivo [5]” stood at 12 mL/min/kg. In the series “in vivo [8]”, this molecule gave a dose excreted of 1%. The molecule further displayed a half-life in “in vivo [6]” of 0.433 h.
In the case of `CC(=O)N[C@H]1CSCCC(=O)N2CN3CN(C2)C(=O)CCSC[C@@H](NC(=O)[C@H](CC(N)=O)NC(=O)[C@H](CCC(=O)O)NC(=O)[C@H](CC(C)C)NC(=O)[C@H](Cc2c[nH]c4ccccc24)NC(=O)[C@H](Cc2c[nH]cn2)NC1=O)C(=O)N[C@@H](Cc1c[nH]c2ccccc12)C(=O)N[C@@H](CCCNC(=N)N)C(=O)NCC(=O)N[C@@H](Cc1ccccc1)C(=O)N[C@H](C(N)=O)CSCCC3=O`, in “in vitro [9]”, the fraction remaining at 2 h came to 90%. The same molecule returned a half-life in the series “in vitro [10]” below 5 min. The half-life at 1 h, 10 µM in “in vitro [7]” is below 0.0833 h.
Turning to `CC(=O)N[C@H]1CSCCC(=O)N2CN3CN(C2)C(=O)CCSC[C@H](NC(=O)[C@H](CC(=O)O)NC(=O)[C@H](CCC(N)=O)NC(=O)[C@H](CC(C)(C)C)NC(=O)[C@H](Cc2cn(C)c4ccccc24)NC(=O)[C@H](C)N(C)C1=O)C(=O)N[C@@H](Cc1cn(C)c2ccccc12)C(=O)N[C@@H](CCCNC(=N)N(C)C)C(=O)NCC(=O)N[C@@H](Cc1ccc(F)cc1)C(=O)N[C@H](C(N)=O)CSCCC3=O`, in the series “in vitro [4]”, the amount remaining at 18 h was above 50%. The molecule further displayed a half-life at 1 h, 10 µM in the series “in vitro [7]” of 2.38 h.
As for `CC(=O)N[C@H]1CSCCC(=O)N2CN3CN(C2)C(=O)CCSC[C@H](NC(=O)[C@H](CC(N)=O)NC(=O)[C@H](CCC(=O)O)NC(=O)[C@H](CC(C)C)NC(=O)[C@H](Cc2c[nH]c4ccccc24)NC(=O)[C@H](Cc2c[nH]cn2)NC1=O)C(=O)N[C@@H](Cc1c[nH]c2ccccc12)C(=O)N[C@@H](CCCNC(=N)N)C(=O)NCC(=O)N[C@@H](Cc1ccccc1)C(=O)N[C@H](C(N)=O)CSCCC3=O`, in the series “in vivo [1]”, the Vd was 0.6 L/kg. In the series “in vivo [2]”, this molecule registered a bioavailability of 33.9%. For the same molecule, in the series “in vivo [3]”, the MRT was above 24 h. This molecule yielded an amount remaining at 18 h in “in vitro [4]” above 50%. In the series “in vivo [5]”, this molecule came in with a clearance of 6.3 mL/min/kg. The molecule also showed a dose excreted in “in vivo [8]” of 64%. This molecule also showed a half-life in “in vivo [6]” of 1.1 h.
Molecule `CC(=O)N[C@H]1CSCCC(=O)N2CN3CN(C2)C(=O)CCSC[C@@H]2NC(=O)[C@H](CC(=O)O)NC(=O)[C@H](CCC(=O)O)NC(=O)[C@H](CC(C)C)NC(=O)[C@H](CC/C=C/CC[C@H](NC(=O)[C@H](Cc4c[nH]c5ccccc45)NC2=O)C(=O)NCC(=O)N[C@@H](Cc2ccc(F)cc2)C(=O)N[C@H](C(N)=O)CSCCC3=O)NC(=O)[C@H](CCC(N)=O)NC1=O` came in with a Vd in the series “in vivo [1]” of 0.21 L/kg. In the series “in vivo [2]”, this molecule yielded a bioavailability of 5.9%. This molecule displayed an MRT in the series “in vivo [3]” of 0.5 h. The share remaining at 18 h in “in vitro [4]” was above 50%. Moreover, the clearance in the series “in vivo [5]” turned out to be 46 mL/min/kg. In “in vivo [8]”, this molecule displayed a dose excreted of 0.1%. Moreover, the half-life in “in vivo [6]” was 0.05 h. The same molecule returned a half-life at 1 h, 10 µM in the series “in vitro [7]” of 0.8 h.
In “in vivo [1]”, `CC(=O)N[C@H]1CSCCC(=O)N2CN3CN(C2)C(=O)CCSC[C@H](NC(=O)[C@H](CC(=O)O)NC(=O)[C@H](CCC(N)=O)NC(=O)[C@H](CC(C)(C)C)NC(=O)[C@H](Cc2cccc4ccccc24)NC(=O)[C@H](C)N(C)C1=O)C(=O)N[C@@H](Cc1cn(C)c2ccccc12)C(=O)N[C@@H](CCCNC(=N)N(C)C)C(=O)NCC(=O)N[C@@H](Cc1ccc(F)cc1)C(=O)N[C@H](C(=O)N[C@@H](C)C(N)=O)CSCCC3=O` came in with a Vd of 0.41 L/kg. In “in vivo [2]”, this molecule gave a bioavailability of 23%. Moreover, the MRT in “in vivo [3]” stood at 2.4 h. In addition, the share remaining at 18 h in the series “in vitro [4]” is above 50%. Also, the clearance in the series “in vivo [5]” is 6.4 mL/min/kg. In the series “in vivo [8]”, this molecule returned a dose excreted of 0.9%. This molecule also showed a half-life in “in vivo [6]” of 0.75 h.
In turn, `CC(=O)N[C@H]1CSCCC(=O)N2CN3CN(C2)C(=O)CCSC[C@@H]2NC(=O)[C@H](CC(=O)O)NC(=O)[C@H](CCC(=O)O)NC(=O)[C@H](CC(C)C)NC(=O)[C@H](CCCCCC[C@H](NC(=O)[C@H](Cc4c[nH]c5ccccc45)NC2=O)C(=O)NCC(=O)N[C@@H](Cc2ccc(F)cc2)C(=O)N[C@H](C(N)=O)CSCCC3=O)NC(=O)[C@H](CCC(N)=O)NC1=O` gave a share remaining at 18 h in the series “in vitro [4]” above 50%. This molecule also showed a half-life at 1 h, 10 µM in the series “in vitro [7]” of 0.567 h.
Molecule `CC(=O)N[C@H]1CSCCC(=O)N2CN3CN(C2)C(=O)CCSC[C@H](NC(=O)[C@H](CC(=O)O)NC(=O)[C@H](CCC(=O)O)NC(=O)[C@H](CC(C)C)NC(=O)[C@H](Cc2cccc4ccccc24)NC(=O)[C@H](CCC(N)=O)NC1=O)C(=O)N[C@@H](Cc1c[nH]c2ccccc12)C(=O)N[C@@H](CCCNC(=N)N(C)C)C(=O)NCC(=O)N[C@@H](Cc1ccc(F)cc1)C(=O)N[C@H](C(=O)N[C@@H](C)C(N)=O)CSCCC3=O` yielded a Vd in “in vivo [1]” of 0.23 L/kg. In addition, the bioavailability in the series “in vivo [2]” turned out to be 8.6%. The molecule further came in with an MRT in “in vivo [3]” of 2.2 h. Further, in the series “in vitro [4]”, the fraction remaining at 18 h was above 50%. In the series “in vivo [5]”, this molecule yielded a clearance of 23 mL/min/kg. For the same molecule, the dose excreted in the series “in vivo [8]” is 0.3%. This molecule gave a half-life in “in vivo [6]” of 0.117 h.
With `CC(=O)N[C@H]1CSCCC(=O)N2CN3CN(C2)C(=O)CCSC[C@H](NC(=O)[C@H](CC(=O)O)NC(=O)[C@H](CCC(=O)O)NC(=O)[C@H](CC(C)C)NC(=O)[C@H](Cc2cccc4ccccc24)NC(=O)[C@H](CCC(N)=O)NC1=O)C(=O)N[C@@H](Cc1c[nH]c2ccccc12)C(=O)N[C@@H](CCCNC(=N)N(C)C)C(=O)NCC(=O)N[C@@H](Cc1ccc(F)cc1)C(=O)N[C@H](C(N)=O)CSCCC3=O`, the share remaining at 18 h in “in vitro [4]” is above 50%. Moreover, the half-life at 1 h, 10 µM in “in vitro [7]” is 1.38 h.
In the series “in vivo [1]”, `CC(=O)N[C@H]1CSCCC(=O)N2CN3CN(C2)C(=O)CCSC[C@H](NC(=O)[C@@H](CC(=O)O)NC(=O)[C@H](CCC(=O)O)NC(=O)[C@H](CC(C)C)NC(=O)[C@H](Cc2c[nH]c4ccccc24)NC(=O)[C@@H](CCC(N)=O)NC1=O)C(=O)N[C@@H](Cc1c[nH]c2ccccc12)C(=O)N[C@@H](CCCNC(=N)N)C(=O)NCC(=O)N[C@@H](Cc1ccc(F)cc1)C(=O)N[C@H](C(=O)O)CSCCC3=O` showed a Vd of 0.13 L/kg. In “in vivo [2]”, the bioavailability came out at 2.3%. Besides, the MRT in the series “in vivo [3]” came to 1 h. Further, the share remaining at 18 h in “in vitro [4]” was above 50%. The clearance in the series “in vivo [5]” came to 45 mL/min/kg. Moreover, in the series “in vivo [6]”, the half-life amounted to 0.0333 h. Further, the half-life at 1 h, 10 µM in “in vitro [7]” worked out at 1.12 h.
In “in vivo [1]”, `CC(=O)N[C@H]1CSCCC(=O)N2CN3CN(C2)C(=O)CCSC[C@H](NC(=O)[C@H](CC(=O)O)NC(=O)[C@H](CCC(N)=O)NC(=O)[C@H](CC(C)(C)C)NC(=O)[C@H](Cc2cn(C)c4ccccc24)NC(=O)[C@H](CCC(N)=O)NC1=O)C(=O)N[C@@H](Cc1cn(C)c2ccccc12)C(=O)N[C@@H](CCCNC(=N)N(C)C)C(=O)NCC(=O)N[C@@H](Cc1ccc(F)c(Cl)c1)C(=O)N[C@H](C(N)=O)CSCCC3=O` had a Vd of 0.32 L/kg. This molecule gave a bioavailability in the series “in vivo [2]” of 22.5%. In addition, in “in vivo [3]”, the MRT is 1.8 h. Also, in the series “in vitro [4]”, the share remaining at 18 h was above 50%. In addition, the clearance in “in vivo [5]” turned out to be 6.4 mL/min/kg. Besides, in “in vivo [8]”, the dose excreted came out at 0.8%. The half-life in “in vivo [6]” came out at 0.583 h. Further, in the series “in vitro [7]”, the half-life at 1 h, 10 µM was found to be 1.53 h.
In turn, `CC(=O)N[C@H]1CSCCC(=O)N2CN3CN(C2)C(=O)CCSC[C@H](NC(=O)[C@H](CC(=O)O)NC(=O)[C@H](CCC(=O)O)NC(=O)[C@H](CC(C)C)NC(=O)[C@H](Cc2c[nH]c4ccccc24)NC(=O)[C@H](CCC(N)=O)NC1=O)C(=O)N[C@@H](Cc1c[nH]c2ccccc12)C(=O)N[C@@H](CCCNC(=N)N)C(=O)NCC(=O)N[C@@H](Cc1ccc(F)cc1)C(=O)N[C@H](C(N)=O)CSCCC3=O` yielded an amount remaining at 18 h in the series “in vitro [4]” above 50%. For the same molecule, the half-life at 1 h, 10 µM in “in vitro [7]” came out at 0.583 h.
